Measured values reported in US9498483B2, “2,3,5-trisubstituted thiophene compounds and uses thereof” (priority 2010, dated 2016).

How the values were obtained:
[1] = system: HCV replicon I389luc-ubi-neo/NS3-3′/ET in ET (Huh-lucubineo-ET) cells; assay: Replicon assay (Biological Example 2), luciferase readout; assay type: cell-based; conditions: Hepatitis C virus
In short: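 EC50 values come from Hill fits of % inhibition of replicon-driven firefly luciferase, relative to no-compound wells. Compounds were serially diluted (10 points, 3-fold, 0.1 nM–50 μM final, 0.5% DMSO) onto ET replicon cells and read after 48 h.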

[2] = biological target: T1, HCV polymerase (Hepatitis C virus genotype 1b, UniProt Q9WMX2); assay: Polymerase assay of Biological Example 1 (IC50 values of Table 3); assay type: biochemical; conditions: IC50 values of Table 3, polymerase assay of Biological Example 1; read-out: NS5B-enzyme3
T1 construct: (His)6 (C); made in house; host or cells: XL-1 cells (E. coli, by own knowledge)

[3] = ET cells, luciferase activity 48 hours after compound

SMILES | IC50 [1, 3] [µM] | IC50 [2] [µM] | IC50 ([1]; between 100 nM and 5.0 uM) [µM]
O=C(O)c1sc(-c2ccc(F)cc2)cc1N1C(=O)CN(S(=O)(=O)c2ccc(N3CCCC3)nc2)C[C@H]1C1CCCCC1 [Compound 232, 3-[(R)-2-Cyclohexyl-6-oxo-4-(6-pyrrolidin-1-yl-pyridine-3-sulfonyl)-piperazin-1-yl]-5-(4-fluoro-phenyl)-thiophene-2-carboxylic acid] | ≤ 0.1 | 0.001 | –
C[C@@H]1CCC[C@H](C)N1c1ccc(S(=O)(=O)N2CC(=O)N(c3cc(-c4ccccc4)sc3C(=O)O)C(C3CCCCC3)C2)cn1 (stereo partly drawn) [Compound 126, 3-[2-Cyclohexyl-4-((2S,6R)-2,6-dimethyl-3,4,5,6-tetrahydro-2H-[1,2′]bipyridinyl-5′-sulfonyl)-6-oxo-piperazin-1-yl]-5-phenyl-thiophene-2-carboxylic acid] | ≤ 0.1 | 0.011 | –
C[C@@H]1CN(c2ccc(S(=O)(=O)N3CC(=O)N(c4cc(-c5ccccc5)sc4C(=O)O)[C@H](C4CCCCC4)C3)cn2)C[C@H](C)N1 [Compound 150, 3-{(R)-2-Cyclohexyl-4-[6-((3R,5S)-3,5-dimethyl-piperazin-1-yl)-pyridine-3-sulfonyl]-6-oxo-piperazin-1-yl}-5-phenyl-thiophene-2-carboxylic acid] | ≤ 0.1 | 0.004 | –
COC1CCN(c2ccc(S(=O)(=O)N3CC(=O)N(c4cc(-c5ccccc5)sc4C(=O)O)C(C4CCCCC4)C3)cn2)CC1 (stereo not shown) [Compound 94, 3-[2-Cyclohexyl-4-(4-methoxy-3,4,5,6-tetrahydro-2H-[1,2′]bipyridinyl-5′-sulfonyl)-6-oxo-piperazin-1-yl]-5-phenyl-thiophene-2-carboxylic acid] | ≤ 0.1 | 0.002 | –
O=C(O)c1sc(-c2ccc(F)cc2)cc1N1C(=O)CN(S(=O)(=O)c2ccc(N3CC[C@@H](F)C3)nc2)C[C@H]1C1CCCCC1 [Compound 280, 3-{(R)-2-Cyclohexyl-4-[6-((R)-3-fluoro-pyrrolidin-1-yl)-pyridine-3-sulfonyl]-6-oxo-piperazin-1-yl}-5-(4-fluoro-phenyl)-thiophene-2-carboxylic acid] | ≤ 0.1 | 0.001 | –
CCCN(CCC)c1ccc(S(=O)(=O)N2CC(=O)N(c3cc(-c4ccccc4)sc3C(=O)O)C(C3CCCCC3)C2)cn1 (stereo not shown) [Compound 77, 3-[2-Cyclohexyl-4-(6-dipropylamino-pyridine-3-sulfonyl)-6-oxo-piperazin-1-yl]-5-phenyl-thiophene-2-carboxylic acid] | ≤ 0.1 | 0.003 | –
C[C@@H]1COCCN1c1ccc(S(=O)(=O)N2CC(=O)N(c3cc(-c4ccc(Cl)cc4)sc3C(=O)O)[C@H](C3CCCCC3)C2)cn1 [Compound 226, 5-(4-Chloro-phenyl)-3-{(R)-2-cyclohexyl-4-[6-((R)-3-methyl-morpholin-4-yl)-pyridine-3-sulfonyl]-6-oxo-piperazin-1-yl}-thiophene-2-carboxylic acid] | ≤ 0.1 | 0.009 | –
C[C@H](O)C[C@H]1OC[C@@H](C2CCCCC2)N(c2cc(C#CC(C)(C)C)sc2C(=O)O)C1=O [Compound 337, 3-[(2R,5R)-5-Cyclohexyl-2-((S)-2-hydroxy-propyl)-3-oxo-morpholin-4-yl]-5-(3,3-dimethyl-but-1-ynyl)-thiophene-2-carboxylic acid] | ≤ 0.1 | 0.002 | –
O=C(O)c1sc(-c2ccccc2)cc1N1C(=O)CN(S(=O)(=O)C2CCN(C(=O)OCc3ccccc3)CC2)CC1C1CCCCC1 (stereo not shown) [Compound 112, 4-[4-(2-Carboxy-5-phenyl-thiophen-3-yl)-3-cyclohexyl-5-oxo-piperazine-1-sulfonyl]-piperidine-1-carboxylic acid benzyl ester] | ≥ 5 | 0.173 | –
O=C(O)c1sc(-c2ccccc2)cc1N1C(=O)CN(S(=O)(=O)c2ccc(N3CCNCC3)nc2)CC1C1CCCCC1 (stereo not shown) [Compound 88, 3-[2-Cyclohexyl-6-oxo-4-(6-piperazin-1-yl-pyridine-3-sulfonyl)-piperazin-1-yl]-5-phenyl-thiophene-2-carboxylic acid] | ≤ 0.1 | 0.00213 | –
O=C(O)c1sc(-c2ccccc2)cc1N1C(=O)CN(S(=O)(=O)c2ccc(-c3cncnc3)nc2)C[C@H]1C1CCCCC1 [Compound 206, 3-[(R)-2-Cyclohexyl-6-oxo-4-(6-pyrimidin-5-yl-pyridine-3-sulfonyl)-piperazin-1-yl]-5-phenyl-thiophene-2-carboxylic acid] | – | 0.001 | 0.1 to 5
CC(C)(C)C#Cc1cc(N2C(=O)C(C)(C)OC[C@H]2C2CCCCC2)c(C(=O)O)s1 [Compound 290, 3-((R)-5-Cyclohexyl-2,2-dimethyl-3-oxomorpholin-4-yl)-5-(3,3-dimethyl-but-1-ynyl)-thiophene-2-carboxylic acid] | ≤ 0.1 | 0.002 | –
COc1ccc(S(=O)(=O)N2CC(=O)N(c3cc(C#CC(C)(C)C)sc3C(=O)O)[C@H](C3CCCCC3)C2)cc1 [Compound 190, 3-[(R)-2-Cyclohexyl-4-(4-methoxy-benzenesulfonyl)-6-oxo-piperazin-1-yl]-5-(3,3-dimethyl-but-1-ynyl)-thiophene-2-carboxylic acid] | ≤ 0.1 | 0.001 | –
COCCNCC1OC[C@@H](C2CCCCC2)N(c2cc(C#CC(C)(C)C)sc2C(=O)O)C1=O (stereo partly drawn) [Compound 307, 3-{(R)-5-Cyclohexyl-2-[(2-methoxy-ethylamino)-methyl]-3-oxo-morpholin-4-yl}-5-(3,3-dimethyl-but-1-ynyl)-thiophene-2-carboxylic acid] | ≤ 0.1 | 0.006 | –
O=C(O)c1sc(-c2ccccc2)cc1N1C(=O)CN(S(=O)(=O)c2cccnc2)CC1C1CCCCC1 (stereo not shown) [Compound 108, 3-[2-Cyclohexyl-6-oxo-4-(pyridine-3-sulfonyl)-piperazin-1-yl]-5-phenyl-thiophene-2-carboxylic acid] | – | 0.037 | 0.1 to 5
N[C@H]1CC(=O)N(c2cc(-c3ccccc3)sc2C(=O)O)[C@@H](C2CCCCC2)C1 [Compound 23, 3-((2R,4R)-4-Amino-2-cyclohexyl-6-oxo-piperidin-1-yl)-5-phenyl-thiophene-2-carboxylic acid] | ≥ 5 | 0.245 | –
Cc1cccc(S(=O)(=O)N2CC(=O)N(c3cc(-c4ccccc4)sc3C(=O)O)C(C3CCCCC3)C2)c1 (stereo not shown) [Compound 49, 3-[2-Cyclohexyl-6-oxo-4-(toluene-3-sulfonyl)-piperazin-1-yl]-5-phenyl-thiophene-2-carboxylic acid] | – | 0.015 | 0.1 to 5
C[C@@H]1C[C@@H](O)CN1c1ccc(S(=O)(=O)N2CC(=O)N(c3cc(-c4ccccc4)sc3C(=O)O)C(C3CCCCC3)C2)cn1 (stereo partly drawn) [Compound 122, 3-{2-Cyclohexyl-4-[6-((2R,4R)-4-hydroxy-2-methyl-pyrrolidin-1-yl)-pyridine-3-sulfonyl]-6-oxo-piperazin-1-yl}-5-phenyl-thiophene-2-carboxylic acid] | ≤ 0.1 | 0.002 | –
Cc1nn(C)cc1S(=O)(=O)N1CC(=O)N(c2cc(C#CC(C)(C)C)sc2C(=O)O)[C@H](C2CCCCC2)C1 [Compound 260, 3-[(R)-2-Cyclohexyl-4-(1,3-dimethyl-1H-pyrazole-4-sulfonyl)-6-oxo-piperazin-1-yl]-5-(3,3-dimethyl-but-1-ynyl)-thiophene-2-carboxylic acid] | – | 0.008 | 0.1 to 5
CC(C)(C)c1ccc(-c2cc(N3C(=O)CCCC3C3CCCCC3)c(C(=O)O)s2)cc1 (stereo not shown) [Compound 113, 5-(4-tert-Butyl-phenyl)-3-(2-cyclohexyl-6-oxo-piperidin-1-yl)-thiophene-2-carboxylic acid] | – | 0.044 | 0.1 to 5
Cc1ccc(-c2cc(N3C(=O)CN(S(=O)(=O)c4ccc(N5CCCOCC5)nc4)C[C@H]3C3CCCCC3)c(C(=O)O)s2)cc1 [Compound 188, 3-[(R)-2-Cyclohexyl-4-(6-[1,4]oxazepan-4-yl-pyridine-3-sulfonyl)-6-oxo-piperazin-1-yl]-5-p-tolyl-thiophene-2-carboxylic acid] | ≤ 0.1 | 0.001 | –
C[C@@H](O)C[C@H]1OC[C@@H](C2CCCCC2)N(c2cc(C#CC(C)(C)C)sc2C(=O)O)C1=O [Compound 336, 3-[(2R,5R)-5-Cyclohexyl-2-((R)-2-hydroxy-propyl)-3-oxo-morpholin-4-yl]-5-(3,3-dimethyl-but-1-ynyl)-thiophene-2-carboxylic acid] | ≤ 0.1 | 0.003 | –
CCOc1ccc(-c2cc(N3C(=O)CCCC3C3CCCCC3)c(C(=O)O)s2)cc1 (stereo not shown) [Compound 116, 3-(2-Cyclohexyl-6-oxo-piperidin-1-yl)-5-(4-ethoxy-phenyl)-thiophene-2-carboxylic acid] | – | 0.064 | 0.1 to 5
CC(C)(C)C#Cc1cc(N2C(=O)C(O)CCC2C2CCCCC2)c(C(=O)O)s1 (stereo not shown) [Compound 313, 3-(6-Cyclohexyl-3-hydroxy-2-oxo-piperidin-1-yl)-5-(3,3-dimethyl-but-1-ynyl)-thiophene-2-carboxylic acid] | ≤ 0.1 | 0.0315 | –
CC(C)(C)C#Cc1cc(N2C(=O)CN(S(=O)(=O)c3ccc(C#N)cc3)C[C@H]2C2CCCCC2)c(C(=O)O)s1 [Compound 238, 3-[(R)-4-(4-Cyano-benzenesulfonyl)-2-cyclohexyl-6-oxo-piperazin-1-yl]-5-(3,3-dimethyl-but-1-ynyl)-thiophene-2-carboxylic acid] | ≤ 0.1 | 0.002 | –
O=C(COc1ccccc1)N[C@@H]1CC(=O)N(c2cc(-c3ccccc3)sc2C(=O)O)[C@@H](C2CCCCC2)C1 [Compound 22, 3-[(2R,4S)-2-Cyclohexyl-6-oxo-4-(2-phenoxy-acetylamino)-piperidin-1-yl]-5-phenyl-thiophene-2-carboxylic acid] | ≥ 5 | 0.02 | –
